# Results from PubChem BioAssay AID330 (DTP/NCI, 2004).
# Values joined by “and” are separate entries in the source; they are usually repeats but may differ in a detail not shown here. Equal values may be shown once. Inconclusive results and toxic doses are left out.
# Test system: P388 leukemia ip, CD2F1 mice, survival T/C
# Experiment: NCI In Vivo Anticancer Drug Screen. Data for tumor model P388 Leukemia (intraperitoneal) in CD2F1 (CDF1) mice
# Settings: endpoint: median survival time, higher = longer survival
# How it was run: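 Mice carrying the transplanted tumor received test compound or vehicle. Survival was recorded in each group, and the value is the treated-group measurement divided by that of the vehicle-treated control group.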
# [1] = dose: 50.0 mg/kg/injection, schedule: Q01DX005 (ip), vehicle: Klucel (hydroxypropylcellulose) (HPC)
# [2] = dose: 60.0 mg/kg/injection, schedule: Q01DX005 (ip), vehicle: saline with Tween-80
# [3] = dose: 120.0 mg/kg/injection, schedule: Q01DX005 (ip), vehicle: saline with Tween-80
# [4] = dose: 100.0 mg/kg/injection, schedule: Q01DX005 (ip), vehicle: Klucel (hydroxypropylcellulose) (HPC)
# [5] = dose: 200.0 mg/kg/injection, schedule: Q01DX005 (ip), vehicle: Klucel (hydroxypropylcellulose) (HPC)
# [6] = dose: 100.0 mg/kg/injection, schedule: Q01DX009 (ip), vehicle: Klucel (hydroxypropylcellulose) (HPC)
# [7] = dose: 240.0 mg/kg/injection, schedule: Q01DX005 (ip), vehicle: saline with Tween-80
smiles,measurement,setting,value
O=C1C=CC(=O)N1c1ccc(Cl)cc1Cl,T/C,"dose: 3.12 mg/kg/injection, schedule: Q04DX003 (ip), vehicle: saline with Tween-80",105 % of control
same,T/C,"dose: 6.25 mg/kg/injection, schedule: Q04DX003 (ip), vehicle: saline with Tween-80",109 % of control
same,T/C,"dose: 12.5 mg/kg/injection, schedule: Q04DX003 (ip), vehicle: saline with Tween-80",96 % of control
CN(C(=S=O)c1ccccc1)c1ccc([N+](=O)[O-])cc1,T/C,"dose: 50.0 mg/kg/injection, schedule: Q04DX002 (ip), vehicle: saline",95 % of control
same,T/C,"dose: 100.0 mg/kg/injection, schedule: Q04DX002 (ip), vehicle: saline",95 % of control
same,T/C,"dose: 200.0 mg/kg/injection, schedule: Q04DX002 (ip), vehicle: saline",96 % of control
NC(=O)NN=C(C1CC1)C1CC1,T/C,"dose: 3.12 mg/kg/injection, schedule: Q01DX005 (ip), vehicle: Klucel (hydroxypropylcellulose) (HPC)",115 % of control
same,T/C,"dose: 6.25 mg/kg/injection, schedule: Q01DX005 (ip), vehicle: Klucel (hydroxypropylcellulose) (HPC)",98 % of control
same,T/C,"dose: 12.5 mg/kg/injection, schedule: Q01DX005 (ip), vehicle: Klucel (hydroxypropylcellulose) (HPC)",104 % of control
same,T/C,[1],99 % of control
Nc1nc(N)c2nn(C3OC(CO)C(O)C3O)nc2n1 (stereo not drawn),T/C,"dose: 25.0 mg/kg/injection, schedule: Q01DX001 (ip), vehicle: saline",103 % of control
same,T/C,"dose: 50.0 mg/kg/injection, schedule: Q01DX001 (ip), vehicle: saline",94 % of control
same,T/C,"dose: 100.0 mg/kg/injection, schedule: Q01DX001 (ip), vehicle: saline",105 % of control
same,T/C,"dose: 200.0 mg/kg/injection, schedule: Q01DX001 (ip), vehicle: saline",100 % of control
same,T/C,"dose: 400.0 mg/kg/injection, schedule: Q01DX001 (ip), vehicle: saline",100 % of control
Cc1ccc(S(=O)(=O)OC2CCCC2)cc1,T/C,"dose: 50.0 mg/kg/injection, schedule: Q01DX009 (ip), vehicle: other",100 % of control
same,T/C,"dose: 100.0 mg/kg/injection, schedule: Q01DX009 (ip), vehicle: other",103 % of control
same,T/C,"dose: 200.0 mg/kg/injection, schedule: Q01DX009 (ip), vehicle: other",89 % of control
O=C(O)c1ccc(NC(=S)NC(=O)c2cccc(Br)c2)cc1,T/C,[2],91 % of control
same,T/C,[3],86 % of control
CC1(C)CCC(C)(C)NC(=S)N1,T/C,"dose: 3.13 mg/kg/injection, schedule: Q01DX009 (ip), vehicle: saline with Tween-80",96 % of control
same,T/C,"dose: 6.25 mg/kg/injection, schedule: Q01DX009 (ip), vehicle: saline with Tween-80",105 % of control
same,T/C,"dose: 12.5 mg/kg/injection, schedule: Q01DX009 (ip), vehicle: saline with Tween-80",96 % of control
S=C(N/N=C\c1nc2ccccc2c2ccccc12)Nc1ccc(Br)cc1,T/C,"dose: 100.0 mg/kg/injection, schedule: Q04DX002 (ip), vehicle: Klucel (hydroxypropylcellulose) (HPC)",93 % of control
same,T/C,"dose: 200.0 mg/kg/injection, schedule: Q04DX002 (ip), vehicle: Klucel (hydroxypropylcellulose) (HPC)",93 % of control
same,T/C,"dose: 400.0 mg/kg/injection, schedule: Q04DX002 (ip), vehicle: Klucel (hydroxypropylcellulose) (HPC)",96 % of control
CN(C)CCOc1cccc2c1CCC2,T/C,[2],107 % of control
same,T/C,[3],87 % of control
NC(=O)c1cccn(-c2ccccc2)c1=S,T/C,[1],89 % of control
same,T/C,[4],105 % of control
same,T/C,[5],105 % of control
COc1ccccc1-n1c(C)nc2c(cnn2C)c1=O,T/C,[1],100 % of control
same,T/C,[4],100 % of control
same,T/C,[5],103 % of control
C=CCN(CC=C)CC(C)(O)CNc1cc(OC)cc2cccnc12 (stereo not drawn),T/C,"dose: 50.0 mg/kg/injection, schedule: Q01DX005 (ip), vehicle: saline",107 % of control
same,T/C,"dose: 100.0 mg/kg/injection, schedule: Q01DX005 (ip), vehicle: saline",101 % of control
O=C(Nc1ccc(Nc2ccncc2)cc1)c1ccc([N+](=O)[O-])cc1,T/C,[6],90 % of control
same,T/C,"dose: 200.0 mg/kg/injection, schedule: Q01DX009 (ip), vehicle: Klucel (hydroxypropylcellulose) (HPC)",100 % of control
same,T/C,"dose: 400.0 mg/kg/injection, schedule: Q01DX009 (ip), vehicle: Klucel (hydroxypropylcellulose) (HPC)",90 % of control
CC1OC(n2ccc(NC(=O)c3ccc(NC(=O)C(C)(N)CO)cc3)nc2=O)CCC1OC1OC(C)C(N(C)C)C(O)C1O (stereo not drawn),T/C,"dose: 100.0 mg/kg/injection, schedule: Q04DX003 (ip), vehicle: saline with Tween-80",100 % of control
same,T/C,"dose: 200.0 mg/kg/injection, schedule: Q04DX003 (ip), vehicle: saline with Tween-80",100 % of control
same,T/C,"dose: 400.0 mg/kg/injection, schedule: Q04DX003 (ip), vehicle: saline with Tween-80",109 % of control
CC(=O)NC(CNC(C)C)C(=O)O (stereo not drawn),T/C,"dose: 50.0 mg/kg/injection, schedule: Q01DX001 (ip), vehicle: Klucel (hydroxypropylcellulose) (HPC)",102 % of control
same,T/C,"dose: 100.0 mg/kg/injection, schedule: Q01DX001 (ip), vehicle: Klucel (hydroxypropylcellulose) (HPC)",106 % of control
same,T/C,"dose: 200.0 mg/kg/injection, schedule: Q01DX001 (ip), vehicle: Klucel (hydroxypropylcellulose) (HPC)",98 % of control
Nc1nc(=S)ss1,T/C,"dose: 12.5 mg/kg/injection, schedule: Q01DX009 (ip), vehicle: Klucel (hydroxypropylcellulose) (HPC)",116 % of control and 98 % of control
same,T/C,"dose: 25.0 mg/kg/injection, schedule: Q01DX009 (ip), vehicle: Klucel (hydroxypropylcellulose) (HPC)",107 % of control and 111 % of control
same,T/C,"dose: 50.0 mg/kg/injection, schedule: Q01DX009 (ip), vehicle: Klucel (hydroxypropylcellulose) (HPC)",109 % of control and 119 % of control
same,T/C,[6],109 % of control
CCOC(=O)c1cc(Br)c(=O)n(C)c1,T/C,"dose: 50.0 mg/kg/injection, schedule: Q01DX005 (ip), vehicle: saline with Tween-80",96 % of control
same,T/C,"dose: 100.0 mg/kg/injection, schedule: Q01DX005 (ip), vehicle: saline with Tween-80",95 % of control
same,T/C,"dose: 200.0 mg/kg/injection, schedule: Q01DX005 (ip), vehicle: saline with Tween-80",89 % of control
CC1(C)OC2C(CCP(=O)(O)O)OC(c3nc(C(N)=O)cs3)C2O1 (stereo not drawn),T/C,"dose: 100.0 mg/kg/injection, schedule: Q04DX003 (ip), vehicle: suspension in saline",99 % of control
same,T/C,"dose: 200.0 mg/kg/injection, schedule: Q04DX003 (ip), vehicle: suspension in saline",100 % of control
same,T/C,"dose: 400.0 mg/kg/injection, schedule: Q04DX003 (ip), vehicle: suspension in saline",119 % of control
c1ccc(Cc2ncnc3nc[nH]c23)cc1,T/C,"dose: 2.5 mg/kg/injection, schedule: Q01DX009 (ip), vehicle: saline with Tween-80",111 % of control
same,T/C,"dose: 5.0 mg/kg/injection, schedule: Q01DX009 (ip), vehicle: saline with Tween-80",111 % of control
same,T/C,"dose: 10.0 mg/kg/injection, schedule: Q01DX009 (ip), vehicle: saline with Tween-80",111 % of control
same,T/C,"dose: 20.0 mg/kg/injection, schedule: Q01DX009 (ip), vehicle: saline with Tween-80",105 % of control and 107 % of control and 110 % of control
same,T/C,"dose: 40.0 mg/kg/injection, schedule: Q01DX009 (ip), vehicle: saline with Tween-80",98 % of control and 103 % of control
same,T/C,"dose: 80.0 mg/kg/injection, schedule: Q01DX009 (ip), vehicle: saline with Tween-80",110 % of control and 111 % of control and 91 % of control
same,T/C,"dose: 160.0 mg/kg/injection, schedule: Q01DX009 (ip), vehicle: saline with Tween-80",95 % of control
Cc1c2cc[n+](C)c(C)c2cc2c1[nH]c1ccc(O)cc12,T/C,"dose: 10.0 mg/kg/injection, schedule: Q04DX002 (ip), vehicle: water",157 % of control
same,T/C,"dose: 20.0 mg/kg/injection, schedule: Q04DX002 (ip), vehicle: water",162 % of control
same,T/C,"dose: 40.0 mg/kg/injection, schedule: Q04DX002 (ip), vehicle: water",89 % of control
same,T/C,"dose: 50.0 mg/kg/injection, schedule: Q04DX002 (ip), vehicle: water",88 % of control
N=C1N=Nc2nc(C(C(=O)c3ccc(O)cc3O)c3nc4n(c3O)C(=N)N=N4)c(O)n21 (stereo not drawn),T/C,[2],100 % of control
same,T/C,[3],104 % of control
same,T/C,[7],103 % of control
C=CCCN=C(SC)SC,T/C,[2],104 % of control
same,T/C,[3],114 % of control
C=C1C(=O)OC2CC1CCC1(C)OC1CCC(C)=CCCC2(C)O (stereo not drawn),T/C,"dose: 7.5 mg/kg/injection, schedule: Q01DX009 (ip), vehicle: Klucel (hydroxypropylcellulose) (HPC)",100 % of control and 101 % of control
same,T/C,"dose: 15.0 mg/kg/injection, schedule: Q01DX009 (ip), vehicle: Klucel (hydroxypropylcellulose) (HPC)",107 % of control and 119 % of control
same,T/C,"dose: 30.0 mg/kg/injection, schedule: Q01DX009 (ip), vehicle: Klucel (hydroxypropylcellulose) (HPC)",107 % of control and 108 % of control
same,T/C,"dose: 60.0 mg/kg/injection, schedule: Q01DX009 (ip), vehicle: Klucel (hydroxypropylcellulose) (HPC)",108 % of control
CCOC(=O)C(C)Oc1ccc(Cn2ccnn2)cc1 (stereo not drawn),T/C,[2],98 % of control
same,T/C,[3],98 % of control
same,T/C,[7],96 % of control
